Source: publication PMC9633101 (Science signaling, 2022)

Target: T1, TRPL (TRPL::EGFP) (Drosophila melanogaster, UniProt P48994)
T1 sequence (P48994 1-1124): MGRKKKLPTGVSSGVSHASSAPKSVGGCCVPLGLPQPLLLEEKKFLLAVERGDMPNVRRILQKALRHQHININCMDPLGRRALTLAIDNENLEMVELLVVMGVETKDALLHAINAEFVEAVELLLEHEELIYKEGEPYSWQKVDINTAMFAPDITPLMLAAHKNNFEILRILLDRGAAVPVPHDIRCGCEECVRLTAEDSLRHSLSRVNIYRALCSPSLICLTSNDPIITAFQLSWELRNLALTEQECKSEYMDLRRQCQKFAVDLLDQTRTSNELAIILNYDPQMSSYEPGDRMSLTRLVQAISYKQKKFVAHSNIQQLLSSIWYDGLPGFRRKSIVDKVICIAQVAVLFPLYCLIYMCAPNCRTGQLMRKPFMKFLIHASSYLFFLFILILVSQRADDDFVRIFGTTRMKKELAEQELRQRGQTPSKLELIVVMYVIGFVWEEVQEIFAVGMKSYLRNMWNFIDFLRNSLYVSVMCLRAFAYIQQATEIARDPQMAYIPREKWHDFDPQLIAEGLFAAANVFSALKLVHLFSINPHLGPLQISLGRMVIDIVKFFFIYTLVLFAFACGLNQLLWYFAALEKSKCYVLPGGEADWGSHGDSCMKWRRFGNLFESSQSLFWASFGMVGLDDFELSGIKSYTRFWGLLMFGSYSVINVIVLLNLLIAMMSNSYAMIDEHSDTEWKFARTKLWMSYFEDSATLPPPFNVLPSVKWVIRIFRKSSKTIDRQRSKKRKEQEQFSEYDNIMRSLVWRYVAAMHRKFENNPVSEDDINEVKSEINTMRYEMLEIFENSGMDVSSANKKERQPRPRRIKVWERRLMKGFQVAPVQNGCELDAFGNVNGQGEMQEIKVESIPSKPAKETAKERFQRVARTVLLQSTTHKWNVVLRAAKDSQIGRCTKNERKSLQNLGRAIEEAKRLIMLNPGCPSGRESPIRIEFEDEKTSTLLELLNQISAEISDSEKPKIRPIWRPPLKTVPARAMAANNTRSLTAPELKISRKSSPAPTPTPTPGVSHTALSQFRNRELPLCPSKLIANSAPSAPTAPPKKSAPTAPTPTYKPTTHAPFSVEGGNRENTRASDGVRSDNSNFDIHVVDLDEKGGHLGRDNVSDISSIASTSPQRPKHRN
Test: Fura-2 Ca2+ imaging, S2 cells
Type: cell-based

Row | SMILES | EC50
1 | CCCCC/C=C\C/C=C\CCCCCCCC(=O)OC(CO)CO [2-LG, 2-linoleoyl glycerol] | 5.23 µM
2 | CCCCC/C=C\C/C=C\CCCCCCCC(=O)NCCO [LEA, linoleoyl ethanolamide] | 7.04 µM
3 | CCCCC/C=C\C/C=C\CCCCCCCC(=O)NCC(=O)O [LinGly, linoleoyl glycine] | 2.99 µM
